Results: PubChem BioAssay AID1745844 (Carcinogenic Potency Database (CPDB), 2022)
Activity calls are given as the source filed them. No rule for the calls is given here.

Test system: rodent lifetime carcinogenesis bioassay, tumor incidence TD50
Test: carcinogenic potency in animals, long-term in vivo studies, CPDB compilation (AID 1745844)
[1] = rat, strain Fischer 344, females, in feed, site: adrenal medulla, lesion: pheochromocytoma, benign, dosed 104 weeks, study length 104 weeks
[2] = rat, strain Fischer 344, females, in feed, site: adrenal medulla, lesion: several types, types named in the paper, dosed 104 weeks, study length 104 weeks

Q: Which TD50 (mouse, strain B6C3F1, females, inhaled, site: liver, lesion: hepatocellular carcinoma, dosed 105 weeks, study length 105 weeks) does the source give for `CCCCCC` here?
A: 84800 mg/kg/day

Q: What about the TD50 (mouse, strain B6C3F1, females, inhaled, site: liver, lesion: several types, types named in the paper, dosed 105 weeks, study length 105 weeks) of the same compound?
A: 30300 mg/kg/day

Q: What about the TD50 (mouse, strain B6C3F1, females, inhaled, site: pituitary gland, lesion: adenoma, dosed 105 weeks, study length 105 weeks) of the same compound?
A: 10300 mg/kg/day

Q: And the TD50 (mouse, strain B6C3F1, females, inhaled, site: pituitary gland, lesion: several types, types named in the paper, dosed 105 weeks, study length 105 weeks)?
A: 9460 mg/kg/day

Q: What about the carcinogen call (mouse, strain B6C3F1, males, inhaled, site: liver, lesion: several types, types named in the paper, dosed 105 weeks, study length 105 weeks) of the same compound?
A: negative (inactive)

Q: What about the carcinogen call (rat, strain Fischer 344, females, inhaled, site: nasal mucosa, lesion: one or several types, types not named, dosed 105 weeks, study length 105 weeks) of the same compound?
A: negative (inactive)

Q: What about the carcinogen call (rat, strain Fischer 344, males, inhaled, site: nasal mucosa, lesion: one or several types, types not named, dosed 105 weeks, study length 105 weeks) of the same compound?
A: negative (inactive)

Q: What does the source list for `N#[N+]c1ccccc1`?
A: TD50 (hamster, strain Syrian Golden, females, by gavage, site: liver, lesion: Kupffer-cell sarcoma, dosed 90 weeks, study length 90 weeks): 66.1 mg/kg/day (inactive); TD50 (hamster, strain Syrian Golden, females, by gavage, site: liver, lesion: cholangioma, dosed 90 weeks, study length 90 weeks): 293 mg/kg/day (inactive); TD50 (hamster, strain Syrian Golden, females, by gavage, site: liver, lesion: hemangioma, dosed 90 weeks, study length 90 weeks): 66.1 mg/kg/day (inactive); TD50 (hamster, strain Syrian Golden, males, by gavage, site: liver, lesion: hemangioma, dosed 90 weeks, study length 90 weeks): 293 mg/kg/day (inactive); TD50 (mouse, strain Swiss albino, females, by gavage, site: lung, lesion: adenocarcinoma, dosed 52 weeks, study length 141 weeks): 39.4 mg/kg/day; TD50 (mouse, strain Swiss albino, females, by gavage, site: lung, lesion: adenoma, dosed 52 weeks, study length 141 weeks): 27.1 mg/kg/day; TD50 (mouse, strain Swiss albino, females, by gavage, site: lung, lesion: several types, types named in the paper, dosed 52 weeks, study length 141 weeks): 16.5 mg/kg/day; TD50 (mouse, strain Swiss albino, males, by gavage, site: lung, lesion: adenoma, dosed 52 weeks, study length 129 weeks): 14.8 mg/kg/day; TD50 (mouse, strain Swiss albino, males, by gavage, site: lung, lesion: several types, types named in the paper, dosed 52 weeks, study length 129 weeks): 12.7 mg/kg/day

Q: What does the source list for `NC(=O)N(CCCO)N=O`?
A: TD50 (rat, strain Fischer 344, females, by gavage, site: forestomach, lesion: one or several types, types not named, dosed 30 weeks, study length 104 weeks): 1.27 mg/kg/day; TD50 (rat, strain Fischer 344, females, by gavage, site: liver, lesion: one or several types, types not named, dosed 30 weeks, study length 104 weeks): 1.27 mg/kg/day; TD50 (rat, strain Fischer 344, males, by gavage, site: forestomach, lesion: one or several types, types not named, dosed 30 weeks, study length 104 weeks): 1.98 mg/kg/day; TD50 (rat, strain Fischer 344, males, by gavage, site: forestomach, lesion: one or several types, types not named, dosed 40 weeks, study length 104 weeks): 0.866 mg/kg/day; TD50 (rat, strain Fischer 344, males, by gavage, site: liver, lesion: one or several types, types not named, dosed 30 weeks, study length 104 weeks): 3.78 mg/kg/day; TD50 (rat, strain Fischer 344, males, by gavage, site: liver, lesion: one or several types, types not named, dosed 40 weeks, study length 104 weeks): 1.24 mg/kg/day; TD50 (rat, strain Fischer 344, males, by gavage, site: lung, lesion: several types, types named in the paper, dosed 30 weeks, study length 104 weeks): 1.79 mg/kg/day; TD50 (rat, strain Fischer 344, males, by gavage, site: skin, lesion: several types, types named in the paper, dosed 30 weeks, study length 104 weeks): 0.668 mg/kg/day; TD50 (rat, strain Fischer 344, males, by gavage, site: stomach, glandular, lesion: one or several types, types not named, dosed 30 weeks, study length 104 weeks): 0.888 mg/kg/day

Q: With `CC1(C)C(=O)Nc2ccc(C3=NNC(=O)CC3)cc21` as the compound, how does the TD50 [1] read?
A: 5.05 mg/kg/day

Q: What about the TD50 [2] of the same compound?
A: 4.82 mg/kg/day

Q: What about the TD50 (rat, strain Fischer 344, males, in feed, site: adrenal medulla, lesion: pheochromocytoma, benign, dosed 95 weeks, study length 95 weeks) of the same compound?
A: 1.38 mg/kg/day

Q: What about the TD50 (rat, strain Fischer 344, males, in feed, site: adrenal medulla, lesion: pheochromocytoma, malignant, dosed 95 weeks, study length 95 weeks) of the same compound?
A: 23.8 mg/kg/day

Q: What about the TD50 (rat, strain Fischer 344, males, in feed, site: adrenal medulla, lesion: several types, types named in the paper, dosed 95 weeks, study length 95 weeks) of the same compound?
A: 1.27 mg/kg/day

Q: Which carcinogen call (rat, strain Fischer 344, females, in drinking water, site: liver, lesion: several types, types named in the paper, dosed 94 weeks, study length 130 weeks) does the source give for `CN(C)CCN(Cc1ccco1)c1ccccn1` here?
A: negative (inactive)

Q: And the TD50 (rat, strain Fischer 344, females, in drinking water, site: thyroid follicle, lesion: several types, types named in the paper, dosed 94 weeks, study length 130 weeks)?
A: 559 mg/kg/day (inactive)

Q: And the carcinogen call (rat, strain Fischer 344, males, in drinking water, site: liver, lesion: several types, types named in the paper, dosed 94 weeks, study length 115 weeks)?
A: negative (inactive)

Q: With `S=C=NCCCCCCc1ccccc1` as the compound, how does the carcinogen call (rat, strain Fischer 344, males, in feed, site: colon, lesion: one or several types, types not named, dosed 55 weeks, study length 55 weeks) read?
A: negative (inactive)

Q: What about the carcinogen call (rat, strain Fischer 344, males, in feed, site: liver, lesion: hepatocellular adenoma, dosed 112 weeks, study length 112 weeks) of the same compound?
A: negative (inactive)

Q: What about the carcinogen call (rat, strain Fischer 344, males, in feed, site: liver, lesion: hepatocellular carcinoma, dosed 112 weeks, study length 112 weeks) of the same compound?
A: negative (inactive)

Q: And the carcinogen call (rat, strain Fischer 344, males, in feed, site: pancreas, exocrine, lesion: acinar-cell adenoma, dosed 112 weeks, study length 112 weeks)?
A: negative (inactive)

Q: What about the carcinogen call (rat, strain Fischer 344, males, in feed, site: pancreatic islets, lesion: islet-cell adenoma, dosed 112 weeks, study length 112 weeks) of the same compound?
A: negative (inactive)

Q: Which TD50 [1] does the source give for `COc1cc(S(C)=O)ccc1-c1nc2ccncc2[nH]1` (stereo not drawn) here?
A: 450 mg/kg/day

Q: And the TD50 [2]?
A: 385 mg/kg/day

Q: What about the TD50 (rat, strain Fischer 344, males, in feed, site: adrenal medulla, lesion: pheochromocytoma, benign, dosed 104 weeks, study length 104 weeks) of the same compound?
A: 45.4 mg/kg/day

Q: And the TD50 (rat, strain Fischer 344, males, in feed, site: adrenal medulla, lesion: pheochromocytoma, malignant, dosed 104 weeks, study length 104 weeks)?
A: 481 mg/kg/day

Q: What about the TD50 (rat, strain Fischer 344, males, in feed, site: adrenal medulla, lesion: several types, types named in the paper, dosed 104 weeks, study length 104 weeks) of the same compound?
A: 38.8 mg/kg/day
